For the assay, the target named is Zaire ebolavirus disulfide-linked glycoprotein heterodimer (GP1-GP2) (Zaire ebolavirus, UniProt Q05320). The assay is described as follows: biochemical. In kind it is binding.
Sequence of Zaire ebolavirus disulfide-linked glycoprotein heterodimer (GP1-GP2) (Q05320 33-501 limits assumed): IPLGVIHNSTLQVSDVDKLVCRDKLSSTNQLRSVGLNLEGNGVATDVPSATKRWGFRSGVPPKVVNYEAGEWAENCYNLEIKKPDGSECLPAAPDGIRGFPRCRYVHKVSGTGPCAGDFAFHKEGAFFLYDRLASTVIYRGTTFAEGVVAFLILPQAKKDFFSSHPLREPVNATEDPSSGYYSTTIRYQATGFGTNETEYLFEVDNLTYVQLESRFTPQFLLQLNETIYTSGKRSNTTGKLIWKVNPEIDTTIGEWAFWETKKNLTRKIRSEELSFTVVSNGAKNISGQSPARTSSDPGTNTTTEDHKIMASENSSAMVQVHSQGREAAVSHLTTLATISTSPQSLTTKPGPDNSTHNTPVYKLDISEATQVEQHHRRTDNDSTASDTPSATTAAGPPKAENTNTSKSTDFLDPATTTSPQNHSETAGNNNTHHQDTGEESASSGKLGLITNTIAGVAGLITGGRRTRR
Sequence of Zaire ebolavirus disulfide-linked glycoprotein heterodimer (GP1-GP2) (Q05320 502-676 limits assumed): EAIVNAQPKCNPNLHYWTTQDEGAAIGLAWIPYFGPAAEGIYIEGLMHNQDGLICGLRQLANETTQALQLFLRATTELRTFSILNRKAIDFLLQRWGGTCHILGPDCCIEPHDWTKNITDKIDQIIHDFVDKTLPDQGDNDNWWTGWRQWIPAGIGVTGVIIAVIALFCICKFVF

In turn, `CCN(CC)CCCC(C)Nc1c2ccc(Cl)cc2nc2ccc(OC)cc12` (centres unmarked) [Quinacrine] gave a dissociation constant (Kd) of 7.55 µM.

Turning to `CCN(CC)CCOc1ccc2c(c1)C(=O)c1cc(OCCN(CC)CC)ccc1-2` [Tilorone], the dissociation constant Kd stood at 0.73 µM.

For `NC(=O)c1nc(F)c[nH]c1=O` [Favipiravir], the “binds to EBOV glycoprotein” value is “did not”. The same measure, in the same setting: the value for `C[C@H]1[C@H](OC(=O)CCC(=O)O)O[C@@H]2O[C@@]3(C)CC[C@H]4[C@H](C)CC[C@@H]1[C@@]24OO3` [Artesunate] was “did not”. With `COc1ccc2nc3cc(Cl)ccc3c(Nc3cc(CN4CCCC4)c(O)c(CN4CCCC4)c3)c2n1` [Pyronaridine, 4-[(7-Chloro-2-methoxybenzo[b][1,5]naph-thyridin-10-yl)amino]-2,6-bis(1-pyrrolidinylmethyl)phenol phosphate (1:4)], the dissociation constant (Kd) worked out at 7.34 µM.

For orientation: Kd means the concentration at which binding is half-saturated. Low readings indicate a tighter complex, high ones a looser complex.

The record behind these values is patent US11696914B1 (priority 2019, dated 2023).
